Source: PubChem BioAssay (NCI)
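Briefly, cells in 96-well plates were exposed to five compound concentrations for 48 h, and endpoints were estimated by linear interpolation. TGI: concentration producing complete growth inhibition.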

Columns and labels:
Test in all cases: NCI-60 cell line screen, 48 h
SW-620 colon = system: SW-620 colon
NCI-H226 lung = system: NCI-H226 lung
LXFL 529 NSCLC = system: LXFL 529 NSCLC
SK-MEL-28 melanoma = system: SK-MEL-28 melanoma
TK-10 renal = system: TK-10 renal
LOX IMVI melanoma = system: LOX IMVI melanoma
KM20L2 colon = system: KM20L2 colon
SK-MEL-5 melanoma = system: SK-MEL-5 melanoma
EKVX NSCLC = system: EKVX NSCLC
HCT-116 colon = system: HCT-116 colon
RXF 393 renal = system: RXF 393 renal
SNB-78 CNS = system: SNB-78 CNS
HCT-15 colon = system: HCT-15 colon
NCI-H460 lung = system: NCI-H460 lung
SF-268 CNS = system: SF-268 CNS
MALME-3M melanoma = system: MALME-3M melanoma
HT29 colon = system: HT29 colon
A498 renal = system: A498 renal
M14 melanoma = system: M14 melanoma
U251 CNS = system: U251 CNS
DMS 114 small cell lung = system: DMS 114 small cell lung
DLD-1 colon = system: DLD-1 colon
HOP-62 NSCLC = system: HOP-62 NSCLC
SR leukemia = system: SR leukemia
K-562 leukemia = system: K-562 leukemia
SNB-19 CNS = system: SNB-19 CNS
M19-MEL melanoma = system: M19-MEL melanoma
CCRF-CEM leukemia = system: CCRF-CEM leukemia
OVCAR-8 ovarian = system: OVCAR-8 ovarian
UACC-62 melanoma = system: UACC-62 melanoma
786-0 renal = system: 786-0 renal
HL-60(TB) leukemia = system: HL-60(TB) leukemia
SN12C renal = system: SN12C renal
HOP-18 NSCLC = system: HOP-18 NSCLC
ACHN renal = system: ACHN renal
UO-31 renal = system: UO-31 renal
UACC-257 melanoma = system: UACC-257 melanoma
HCC-2998 colon = system: HCC-2998 colon
SF-539 CNS = system: SF-539 CNS
IGROV1 ovarian = system: IGROV1 ovarian
SK-OV-3 ovarian = system: SK-OV-3 ovarian
KM12 colon = system: KM12 colon
MOLT-4 leukemia = system: MOLT-4 leukemia
OVCAR-3 ovarian = system: OVCAR-3 ovarian
SK-MEL-2 melanoma = system: SK-MEL-2 melanoma
NCI-H522 lung = system: NCI-H522 lung
DMS 273 small cell lung = system: DMS 273 small cell lung
A549 NSCLC = system: A549 NSCLC
COLO 205 colon = system: COLO 205 colon
NCI-H23 lung = system: NCI-H23 lung
SNB-75 CNS = system: SNB-75 CNS
OVCAR-5 ovarian = system: OVCAR-5 ovarian
OVCAR-4 ovarian = system: OVCAR-4 ovarian
RPMI-8226 leukemia = system: RPMI-8226 leukemia
SF-295 CNS = system: SF-295 CNS
XF 498 CNS = system: XF 498 CNS
HOP-92 NSCLC = system: HOP-92 NSCLC
CAKI-1 renal = system: CAKI-1 renal

CC1CC2=C(C(=O)O1)C(c1ccccc1)Nc1ccccc1N2 (configuration not stated)
TGI (SW-620 colon): > 100 µM
TGI (NCI-H226 lung): > 100 µM
TGI (LXFL 529 NSCLC): > 100 µM
TGI (SK-MEL-28 melanoma): > 100 µM
TGI (TK-10 renal): > 100 µM
TGI (LOX IMVI melanoma): > 100 µM
TGI (KM20L2 colon): > 100 µM
TGI (SK-MEL-5 melanoma): > 100 µM
TGI (EKVX NSCLC): > 100 µM
TGI (HCT-116 colon): > 100 µM
TGI (RXF 393 renal): > 100 µM
TGI (SNB-78 CNS): > 100 µM
TGI (HCT-15 colon): > 100 µM
TGI (NCI-H460 lung): > 100 µM
TGI (SF-268 CNS): > 100 µM
TGI (MALME-3M melanoma): > 100 µM
TGI (HT29 colon): > 100 µM
TGI (A498 renal): > 100 µM
TGI (M14 melanoma): > 100 µM
TGI (U251 CNS): > 100 µM
TGI (DMS 114 small cell lung): > 100 µM
TGI (DLD-1 colon): > 100 µM
TGI (HOP-62 NSCLC): > 100 µM
TGI (SR leukemia): > 100 µM
TGI (K-562 leukemia): > 100 µM
TGI (SNB-19 CNS): > 100 µM
TGI (M19-MEL melanoma): > 100 µM
TGI (CCRF-CEM leukemia): > 100 µM
TGI (OVCAR-8 ovarian): > 100 µM
TGI (UACC-62 melanoma): > 100 µM
TGI (786-0 renal): > 100 µM
TGI (HL-60(TB) leukemia): > 100 µM
TGI (SN12C renal): > 100 µM
TGI (HOP-18 NSCLC): > 100 µM
TGI (ACHN renal): > 100 µM
TGI (UO-31 renal): > 100 µM
TGI (UACC-257 melanoma): > 100 µM
TGI (HCC-2998 colon): > 100 µM
TGI (SF-539 CNS): > 100 µM
TGI (IGROV1 ovarian): > 100 µM
TGI (SK-OV-3 ovarian): > 100 µM
TGI (KM12 colon): > 100 µM
TGI (MOLT-4 leukemia): > 100 µM
TGI (OVCAR-3 ovarian): > 100 µM
TGI (SK-MEL-2 melanoma): > 100 µM
TGI (NCI-H522 lung): > 100 µM
TGI (DMS 273 small cell lung): > 100 µM
TGI (A549 NSCLC): > 100 µM
TGI (COLO 205 colon): > 100 µM
TGI (NCI-H23 lung): > 100 µM
TGI (SNB-75 CNS): > 100 µM
TGI (OVCAR-5 ovarian): > 100 µM

CCc1cccc(C(C)C)c1NC(=O)C(=O)C1C(=O)NC(=O)NC1=O
TGI (SW-620 colon): > 100 µM
TGI (NCI-H226 lung): > 100 µM
TGI (OVCAR-4 ovarian): > 100 µM
TGI (LXFL 529 NSCLC): > 100 µM
TGI (SK-MEL-28 melanoma): > 100 µM
TGI (TK-10 renal): > 100 µM
TGI (LOX IMVI melanoma): > 100 µM
TGI (KM20L2 colon): > 100 µM
TGI (SK-MEL-5 melanoma): > 100 µM
TGI (EKVX NSCLC): > 100 µM
TGI (HCT-116 colon): > 100 µM
TGI (RPMI-8226 leukemia): > 100 µM
TGI (RXF 393 renal): > 100 µM
TGI (SF-295 CNS): > 100 µM
TGI (HCT-15 colon): > 100 µM
TGI (NCI-H460 lung): > 100 µM
TGI (SF-268 CNS): > 100 µM
TGI (MALME-3M melanoma): > 100 µM
TGI (HT29 colon): > 100 µM
TGI (A498 renal): > 100 µM
TGI (M14 melanoma): > 100 µM
TGI (U251 CNS): > 100 µM
TGI (DMS 114 small cell lung): > 100 µM
TGI (DLD-1 colon): > 100 µM
TGI (HOP-62 NSCLC): > 100 µM
TGI (SR leukemia): > 100 µM
TGI (K-562 leukemia): > 100 µM
TGI (SNB-19 CNS): > 100 µM
TGI (M19-MEL melanoma): > 100 µM
TGI (CCRF-CEM leukemia): > 100 µM
TGI (OVCAR-8 ovarian): > 100 µM
TGI (XF 498 CNS): > 100 µM
TGI (UACC-62 melanoma): > 100 µM
TGI (786-0 renal): > 100 µM
TGI (HL-60(TB) leukemia): > 100 µM
TGI (SN12C renal): > 100 µM
TGI (HOP-18 NSCLC): > 100 µM
TGI (ACHN renal): > 100 µM
TGI (UO-31 renal): > 100 µM
TGI (UACC-257 melanoma): > 100 µM
TGI (HCC-2998 colon): > 100 µM
TGI (SF-539 CNS): > 100 µM
TGI (IGROV1 ovarian): > 100 µM
TGI (SK-OV-3 ovarian): > 100 µM
TGI (KM12 colon): > 100 µM
TGI (OVCAR-3 ovarian): > 100 µM
TGI (NCI-H522 lung): > 100 µM
TGI (A549 NSCLC): > 100 µM
TGI (COLO 205 colon): > 100 µM
TGI (NCI-H23 lung): > 100 µM
TGI (HOP-92 NSCLC): > 100 µM
TGI (SNB-75 CNS): > 100 µM
TGI (CAKI-1 renal): > 100 µM
TGI (OVCAR-5 ovarian): > 100 µM

Cc1[nH]c2c(C)cccc2c1C1Cc2ccccc2N1 (configuration not stated)
TGI (SW-620 colon): 56.4 µM
TGI (NCI-H226 lung): 57.1 µM
TGI (LXFL 529 NSCLC): 36.4 µM
TGI (SK-MEL-28 melanoma): 36.7 µM
TGI (TK-10 renal): 62.2 µM
TGI (LOX IMVI melanoma): 31 µM
TGI (KM20L2 colon): 31.4 µM
TGI (SK-MEL-5 melanoma): 33.4 µM
TGI (EKVX NSCLC): 35.9 µM
TGI (HCT-116 colon): 30.9 µM
TGI (RPMI-8226 leukemia): 74.6 µM
TGI (RXF 393 renal): 23.1 µM
TGI (SF-295 CNS): 41 µM
TGI (HCT-15 colon): 49.2 µM
TGI (NCI-H460 lung): 51.7 µM
TGI (SF-268 CNS): 48.2 µM
TGI (MALME-3M melanoma): 41.7 µM
TGI (HT29 colon): 35.3 µM
TGI (A498 renal): 87.7 µM
TGI (M14 melanoma): 29.6 µM
TGI (U251 CNS): 41.4 µM
TGI (DMS 114 small cell lung): 45.2 µM
TGI (DLD-1 colon): 79.8 µM
TGI (HOP-62 NSCLC): 32.3 µM
TGI (SR leukemia): 66.7 µM
TGI (K-562 leukemia): 67 µM
TGI (SNB-19 CNS): 69.8 µM
TGI (M19-MEL melanoma): 46.1 µM
TGI (CCRF-CEM leukemia): 74.1 µM
TGI (OVCAR-8 ovarian): 40.2 µM
TGI (XF 498 CNS): 38.4 µM
TGI (UACC-62 melanoma): 32.8 µM
TGI (786-0 renal): 46.9 µM
TGI (HL-60(TB) leukemia): 43 µM
TGI (SN12C renal): 41 µM
TGI (HOP-18 NSCLC): 35.2 µM
TGI (ACHN renal): 74.9 µM
TGI (UO-31 renal): 65.7 µM
TGI (UACC-257 melanoma): 42.7 µM
TGI (SF-539 CNS): 33.7 µM
TGI (IGROV1 ovarian): 36.7 µM
TGI (SK-OV-3 ovarian): > 100 µM
TGI (KM12 colon): 32.4 µM
TGI (MOLT-4 leukemia): 48.3 µM
TGI (OVCAR-3 ovarian): 33 µM
TGI (SK-MEL-2 melanoma): 54.3 µM
TGI (NCI-H522 lung): 41.2 µM
TGI (A549 NSCLC): 62.2 µM
TGI (COLO 205 colon): 32.3 µM
TGI (NCI-H23 lung): 39.8 µM
TGI (HOP-92 NSCLC): 0.0966 µM
TGI (SNB-75 CNS): > 100 µM
TGI (OVCAR-5 ovarian): 41.3 µM

CCNC(=S)NNC(=O)c1nsc2ccccc12
TGI (SW-620 colon): > 100 µM
TGI (OVCAR-4 ovarian): > 100 µM
TGI (LXFL 529 NSCLC): > 100 µM
TGI (SK-MEL-28 melanoma): > 100 µM
TGI (TK-10 renal): > 100 µM
TGI (LOX IMVI melanoma): > 100 µM
TGI (KM20L2 colon): > 100 µM
TGI (SK-MEL-5 melanoma): > 100 µM
TGI (EKVX NSCLC): > 100 µM
TGI (HCT-116 colon): > 100 µM
TGI (RPMI-8226 leukemia): > 100 µM
TGI (RXF 393 renal): > 100 µM
TGI (SNB-78 CNS): > 100 µM
TGI (HCT-15 colon): > 100 µM
TGI (NCI-H460 lung): > 100 µM
TGI (SF-268 CNS): > 100 µM
TGI (HT29 colon): > 100 µM
TGI (M14 melanoma): > 100 µM
TGI (U251 CNS): > 100 µM
TGI (DMS 114 small cell lung): > 100 µM
TGI (HOP-62 NSCLC): > 100 µM
TGI (SR leukemia): > 100 µM
TGI (K-562 leukemia): > 100 µM
TGI (SNB-19 CNS): > 100 µM
TGI (M19-MEL melanoma): > 100 µM
TGI (CCRF-CEM leukemia): > 100 µM
TGI (OVCAR-8 ovarian): > 100 µM
TGI (UACC-62 melanoma): > 100 µM
TGI (HL-60(TB) leukemia): > 100 µM
TGI (SN12C renal): > 100 µM
TGI (HOP-18 NSCLC): > 100 µM
TGI (ACHN renal): > 100 µM
TGI (UO-31 renal): > 100 µM
TGI (UACC-257 melanoma): > 100 µM
TGI (HCC-2998 colon): > 100 µM
TGI (SF-539 CNS): > 100 µM
TGI (IGROV1 ovarian): > 100 µM
TGI (KM12 colon): > 100 µM
TGI (MOLT-4 leukemia): > 100 µM
TGI (OVCAR-3 ovarian): > 100 µM
TGI (SK-MEL-2 melanoma): > 100 µM
TGI (DMS 273 small cell lung): > 100 µM
TGI (A549 NSCLC): > 100 µM
TGI (COLO 205 colon): > 100 µM
TGI (NCI-H23 lung): > 100 µM
TGI (HOP-92 NSCLC): > 100 µM
TGI (SNB-75 CNS): > 100 µM
TGI (OVCAR-5 ovarian): > 100 µM
